# Read-outs that look alike come from different tables or passages of the source.
# Tests used:
# Type in all cases: cell-based
# HBeAg = experiment: HBeAg, HBV-infected HepaRG; conditions: Hepatitis B virus
# cccDNA = cccDNA (digital PCR), HBV-infected HepaRG; conditions: for IC50: Hepatitis B virus
# HBV DNA = HBV DNA in culture medium of HBV-infected PHH; conditions: Hepatitis B virus
# Source text: FIG. 8: Establishment of dPCR assay for cccDNA quantification. […] A 3.2-kb, linearized plasmid HBV is used as a standard curve for relative quantification of HBV DNA by TaqMan-PCR. […] (B) Testing primer & PCR specificity and removal of excess RC-DNA. In contrast to TaqMan-PCR (relative quantification method), digital PCR (dPCR) is an absolute quantification method without the need of standard curve. […] First step—Testing primer and PCR specificity. Serum-derived HBV (contains RC-DNA, devoid of cccDNA) was used as a DNA template for dPCR using 2 sets of primers (for HBV core and cccDNA region) (Werle-Lapostolle et al., 2004). Samples were amplified by dPCR on QuantStudio 12K Flex Real-Time PCR System (AB); 4 subarrays (256 through-holes) were used for each sample. […] Second step—Removal of excess RC-DNA. PHH seeded in 96-well were infected with HBV. At day 6 pi, cell lysates were digested with Plasmid safe, ATP-dependent, DNAse (PSAD), T5 exonuclease, or, T5 exonuclease followed by EcoRI, for 1 hr at 37° C. Samples were amplified by dPCR using cccDNA primers on QuantStudio 12K Flex Real-Time PCR System (AB); 4 subarrays (256 through-holes) were used for each sample. […] Fresh medium and compound was replenished every 2 day. At day 10 pi, culture media were harvested and measured for HBV DNA, HBsAg, and HBeAg. Albumin was used as a surrogate of in vitro tox marker. Cells were lysed and treated with T5 exonuclease, cccDNA was then measured by dPCR on QuantStudio 12K Flex Real-Time PCR System (AB); 4 subarrays (256 through-holes) were used for each sample. […] Cells were treated with compounds at the indicated concentrations starting from day 3 post infection (patient-derived HBV, GT D). Fresh medium and compound was replenished every 2 day. Cells were harvested at day 10 pi; viral markers and albumin were measured from culture medium.
# HBV from sera of CHB individuals were purified using OptiPrep™ (Axis-Shield, Norway) density gradient. Briefly, OptiPrep™ stock solution (60%) was diluted to 50% and 10% in PBS; equal volume of each solution was then added into SW41 tubes (BD Biosciences). Linear gradient was performed by placing the tubes on Gradient Master 108™ (Biocomp) at setting: 800, 25 rpm for 30″. Two hundred microliter (200 μl) of serum was overlaid on the top of gradient and samples were centrifuged at 100,000×g for 2 hours at 4° C. […] Fractions containing the peak of HBV DNA were pooled and used as virus inoculum for all infection experiments. All fractions were stored at −80° C. until used.
# Fresh primary human hepatocytes (PXB-PHH) harvested from humanized mice (uPA/SCID mice)—herein called PHH—were obtained from PhoenixBio Co., Ltd (Japan).
structure (smiles),measurement,setting,value
O=C(NC(CO)CO)c1c[nH]c2ncc(C3CC3)nc12 [compound 7],IC50,"HBeAg; read-out: HBeAg IC50 (μM) Median, HepaRG, HepG2.2.15-derived HBV GT D, MOI 40",6.11 µM
same,IC50,"HBeAg; read-out: HBeAg IC50 (μM) Median, HepaRG, HepG2.2.15-derived HBV GT D, MOI 125",6.55 µM
same,IC50,"HBeAg; read-out: HBeAg IC50 (μM) Median, HepaRG, patient-derived HBV GT D, MOI 40",0.41 µM
same,IC50,"HBeAg; read-out: HBeAg IC50 (μM) Median, HepaRG, patient-derived HBV GT D, MOI 125",0.52 µM
same,IC50,"cccDNA; HepG2.2.15-derived HBV GT D, MOI 40, read-out: cccDNA IC50 (μM) Median",25.9 µM
same,IC50,"cccDNA; HepG2.2.15-derived HBV GT D, MOI 125, read-out: cccDNA IC50 (μM) Median",27.2 µM
same,IC50,"cccDNA; patient-derived HBV GT D, MOI 125, read-out: cccDNA IC50 (μM) Median",7.05 µM
same,cccDNA IC50 (μM) Median,"cccDNA; patient-derived HBV GT D, MOI 40",below LLOQ
same,IC50,"HBV DNA; 240 h, read-out: HBV DNA IC50 (μM) Median, PHH, patient-derived HBV GT A, MOI 40, day 10 pi",0.025 µM
same,IC50,"HBV DNA; 240 h, read-out: HBV DNA IC50 (μM) Median, PHH, patient-derived HBV GT B, MOI 40, day 10 pi",0.023 µM
same,IC50,"HBV DNA; 240 h, read-out: HBV DNA IC50 (μM) Median, PHH, patient-derived HBV GT C, MOI 40, day 10 pi",0.02 µM
same,IC50,"HBV DNA; 240 h, read-out: HBV DNA IC50 (μM) Median, PHH, patient-derived HBV GT D, MOI 40, day 10 pi (Table 5)",0.023 µM
same,IC50,"HBV DNA; read-out: HBV DNA IC50s, PHH, patient-derived HBV GT A-D",0.02 to 0.025 µM

# From US20230248723A1, “PYRROLO[2,3-B]PYRAZINE COMPOUNDS AS CCCDNA INHIBITORS FOR THE TREATMENT OF HEPATITIS B VIRUS (HBV) INFECTION” (Hoffmann-La Roche Inc., priority 2017, published 2023)
